One series has as its system HepG2. Kind of series: (§1) Cytotoxicity against human HepG2 cells assessed as cell viability at 100 uM after 48 hrs by MTT assay. The class given is cell-based. The settings on record: hepg2, 48 h, 100 µM. In general terms: Tetrazolium assays rely on reduction of a dye to a coloured formazan, in cell work by metabolically active cells.
Another series deals with PC-12. Kind of series: Cytotoxicity against rat PC12 cells assessed as cell viability at 100 uM after 48 hrs by MTT assay. The conditions noted are these: pc-12, 48 h. The class given is cell-based.
A further series concerns the target Cholinesterase (Homo sapiens, UniProt P06276). Kind of series: Inhibition of human BuChE using butyrylthiocholine iodide as substrate incubated for 20 mins prior to substrate addition measured for 1 hr by Ellman's method. (DTNB colorimetry detects thiols as they appear.)
The target in the next series is Acetylcholinesterase (Homo sapiens, UniProt P22303). Kind of series: Inhibition of human AchE using acetylthiocholine iodide as substrate incubated for 20 mins prior to substrate addition measured for 1 hr by Ellman's method.
Sequence of Acetylcholinesterase (P22303 whole entry): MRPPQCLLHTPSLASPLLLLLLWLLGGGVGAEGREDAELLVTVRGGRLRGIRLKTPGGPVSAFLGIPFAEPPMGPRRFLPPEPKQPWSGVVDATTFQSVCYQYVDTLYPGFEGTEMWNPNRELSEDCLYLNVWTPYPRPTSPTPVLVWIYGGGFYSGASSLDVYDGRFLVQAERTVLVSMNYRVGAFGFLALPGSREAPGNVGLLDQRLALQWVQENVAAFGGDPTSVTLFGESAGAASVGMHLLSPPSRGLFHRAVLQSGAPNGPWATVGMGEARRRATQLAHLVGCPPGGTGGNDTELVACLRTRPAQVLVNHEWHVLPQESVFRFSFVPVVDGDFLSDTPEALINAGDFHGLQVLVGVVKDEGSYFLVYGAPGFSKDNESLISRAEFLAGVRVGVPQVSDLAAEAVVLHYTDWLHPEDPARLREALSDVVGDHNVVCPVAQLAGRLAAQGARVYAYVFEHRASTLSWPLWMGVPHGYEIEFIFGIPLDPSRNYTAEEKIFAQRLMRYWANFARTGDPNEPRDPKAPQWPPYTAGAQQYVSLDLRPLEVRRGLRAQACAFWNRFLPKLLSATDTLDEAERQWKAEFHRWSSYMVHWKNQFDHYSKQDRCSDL
Another series is filed under the species Homo sapiens. Kind of series: Selectivity ratio of IC50 for human AChE to IC50 for human BuChE.
Series [1] is described as follows: as §1. It is filed as cell-based. The conditions noted are these: HepG2 cells, read-out: Activity.

Each structure is given as a SMILES string.

For orientation: IC50 means the midpoint of a concentration-inhibition curve. Lower therefore signals higher potency.

Sequence of Cholinesterase (P06276 whole entry): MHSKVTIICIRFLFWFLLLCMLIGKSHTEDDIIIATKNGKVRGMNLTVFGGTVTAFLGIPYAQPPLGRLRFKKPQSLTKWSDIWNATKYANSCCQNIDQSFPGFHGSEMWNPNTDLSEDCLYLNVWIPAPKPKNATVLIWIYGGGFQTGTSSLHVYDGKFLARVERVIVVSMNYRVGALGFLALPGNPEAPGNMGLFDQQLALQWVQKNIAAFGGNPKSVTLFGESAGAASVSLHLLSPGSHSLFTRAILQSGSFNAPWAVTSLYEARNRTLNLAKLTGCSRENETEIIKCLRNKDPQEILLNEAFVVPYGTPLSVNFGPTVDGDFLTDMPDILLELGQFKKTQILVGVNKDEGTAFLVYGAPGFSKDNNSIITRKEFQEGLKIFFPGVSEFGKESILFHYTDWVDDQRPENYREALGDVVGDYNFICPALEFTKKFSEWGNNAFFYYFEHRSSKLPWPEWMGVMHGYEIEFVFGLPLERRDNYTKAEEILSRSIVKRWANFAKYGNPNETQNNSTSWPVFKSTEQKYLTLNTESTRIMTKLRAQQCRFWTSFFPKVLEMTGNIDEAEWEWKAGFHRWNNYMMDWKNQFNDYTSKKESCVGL

`c1ccc(Nc2nc3ccccc3[nH]2)nc1`: the Activity entry with HepG2 and in the series with PC-12 was “Non-toxic” throughout. The IC50 against Cholinesterase and against Acetylcholinesterase was more than 100 µM throughout.
On to `CC(C)(C)OC(=O)NCCNc1nc2ccccc2[nH]1`, for which the Activity entry in the series with HepG2 and in the series on PC-12 was “Non-toxic” each time. Besides, the IC50 is 71.9 µM against Cholinesterase and more than 100 µM on Acetylcholinesterase.
For `c1ccc2[nH]c(N3CCCCC3)nc2c1`, the Activity result in the series on HepG2 and in the series on PC-12 was “Non-toxic” in each case. Besides, the Ratio IC50 in the series filed under Homo sapiens stood at 37.7. Also, the values for the IC50 against Cholinesterase and against Acetylcholinesterase were 1.57 µM and 59.2 µM, respectively.
Turning to `c1ccc(CCCNc2nc3ccccc3[nH]2)cc1`, the Activity entry in the series with HepG2 and in the series on PC-12 was “Non-toxic” each time. The IC50 at Cholinesterase and against Acetylcholinesterase was more than 100 µM each time.
Regarding `COCCNc1nc2ccccc2[nH]1`, the Activity entry with HepG2 and in the series with PC-12 was “Non-toxic” throughout. The concentration for half-maximal inhibition (IC50) on Cholinesterase and against Acetylcholinesterase was more than 100 µM throughout.
With `NCCNc1nc2ccccc2[nH]1`, the Activity result in the series on HepG2 and in the series with PC-12 was “Non-toxic” throughout. The IC50 on Cholinesterase and on Acetylcholinesterase was more than 100 µM throughout.
For `CCCCNc1nc2ccccc2[nH]1`, the viability at 48 h, 100 µM in series [1] was determined as 85.2%. The 50% inhibitory concentration (IC50) is 61 µM at Cholinesterase and more than 100 µM at Acetylcholinesterase.
For the molecule `CCCCN(C)c1nc2ccccc2[nH]1`, the Activity entry in the series with HepG2 and in the series on PC-12 was “Non-toxic” throughout. The IC50 against Cholinesterase and against Acetylcholinesterase was more than 100 µM each time.
On to `CC1CCCCN1c1nc2ccccc2[nH]1` (configuration not stated), for which the Activity result in the series with HepG2 and in the series on PC-12 was “Non-toxic” in each case. Further, the Ratio IC50 in the series filed under Homo sapiens came out at 43.8. Moreover, the IC50 amounted to 2.03 µM on Cholinesterase and 88.9 µM at Acetylcholinesterase.
For the molecule `CN(C)CCCN(c1nc2ccccc2[nH]1)c1nc2ccccc2[nH]1`, the Activity result with HepG2 and in the series on PC-12 was “Non-toxic” in each case. In addition, in the series filed under Homo sapiens, the Ratio IC50 turned out to be 26.4. For the same molecule, the IC50 against Cholinesterase was determined as 2.26 µM; on Acetylcholinesterase, 59.7 µM.
In the case of `CCCCN(C)c1nc2ccccc2n1C`, the Activity result in the series with HepG2 and in the series on PC-12 was “Non-toxic” throughout. Moreover, the IC50 at Cholinesterase and against Acetylcholinesterase was more than 100 µM each time.
Regarding `CCCCNc1nc2ccccc2n1C`, the Activity entry with HepG2 and in the series on PC-12 was “Non-toxic” in each case. In addition, the IC50 against Cholinesterase and against Acetylcholinesterase was more than 100 µM in each case.
Consider `CCN(CC)CCCNc1nc2ccccc2[nH]1`, for which the Activity entry with HepG2 and in the series with PC-12 was “Non-toxic” in each case. In addition, the IC50 on Cholinesterase and at Acetylcholinesterase was more than 100 µM each time.
`c1ccc2[nH]c(NC34CC5CC(CC(C5)C3)C4)nc2c1`: the Activity result with HepG2 and with PC-12 was “Non-toxic” each time. Further, the half-inhibitory concentration (IC50) at Cholinesterase and at Acetylcholinesterase was more than 100 µM each time.
As to `c1ccc2c(c1)CCCN2c1nc2ccccc2[nH]1`, the Activity entry with HepG2 and with PC-12 was “Non-toxic” throughout. The IC50 on Cholinesterase and against Acetylcholinesterase was more than 100 µM in each case.

Values taken from ChEMBL document CHEMBL2396588, “Synthesis, biological evaluation and molecular modeling of substituted 2-aminobenzimidazoles as novel inhibitors of acetylcholinesterase and butyrylcholinesterase” (Bioorg Med Chem, 2013).
